Data: PubChem BioAssay (NCI)
Values joined by “and” are separate entries in the source; they are usually repeats but may differ in a detail not shown here. Equal entries are not always repeated.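 Following 48 hours of exposure in 96-well plates, responses at five concentrations were used to interpolate endpoints linearly. GI50 = concentration required for 50% inhibition of growth. TGI: concentration producing complete growth inhibition.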

test system: MDA-MB-231 breast; experiment: NCI-60 cell line screen, 48 h

| Structure (SMILES) | GI50 [µM] | TGI [µM] |
| --- | --- | --- |
| COC[C@H]1Cn2cc(-c3nc(Nc4ccnn4C)ncc3C)nc2C(=O)N1Cc1ccc(F)c(F)c1 | 0.678 | > 78.6 |

test system: MDA-MB-435; experiment: NCI-60 cell line screen, 48 h

| Structure (SMILES) | GI50 | TGI [µM] |
| --- | --- | --- |
| O=C(CCCSc1nc(-c2ccccc2)cc(-c2ccccc2)n1)NO | 2.05 µM | 10.1 |
| CC1SC(c2ccc(F)cc2)N(NC(=O)C(O)c2ccccc2)C1=O (stereo not drawn) | > 100 µM | > 100 |
| COCCOc1ccc(-c2nc3ccc(-c4nc5ccc(N6CCN(C)CC6)cc5[nH]4)cc3[nH]2)cc1 | 0.621 µM | 2.14 |
| Nc1n[nH]c2cccc(C#Cc3cccc(C(=O)Nc4ccc(CN5CCOCC5)c(C(F)(F)F)c4)c3)c12 | 2.22 µM | 10.5 |
| CCC(=C/[C@H](C)C/C=C/C(C)=C/[C@@H](C)C(=O)[C@@H](C)[C@H](O)[C@@H](C)CC)/C=C/[C@H]1OC(=O)C=C[C@@H]1C | < 0.01 µM | < 0.0184 |
| Nc1ccccc1SC(CC(=O)c1ccccc1)c1cccc([N+](=O)[O-])c1 (stereo not drawn) | 16.3 µM | 30.4 |
| CN1CC[C@@H](NC(=O)Nc2ccc(C#N)cc2)C[C@@H]1c1nc2ccccc2[nH]1 | > 100 µM | > 100 |
| COc1ccc2nc(NC(=O)CSc3nnc4n3S(=O)(=O)c3ccccc3N4c3ccccc3)sc2c1 | > 100 µM | > 100 |
| O=C1NC(=NC(CO)Cc2ccccc2)S/C1=C\c1ccc2ncccc2c1 (stereo not drawn) | 6.21 µM and 2.54 µM | > 25 |
| Cc1nnc(NC(=O)c2nc(S(=O)(=O)Cc3ccc(F)cc3)ncc2Cl)s1 | 1.82 µM | 3.43 |
| CC(C)[C@@H]1C=C2CC[C@H]3[C@](C)(CN)CCC[C@]3(C)[C@H]2CC1 | 1.98 µM | 4.2 |
| O=CNc1ccc2c(c1)C(=O)c1ccccc1-2 | – | > 100 |
| O=C(Nc1ccc(Oc2ccc(Nc3nc4ccccc4s3)cc2)cc1)Nc1ccc(Cl)c(C(F)(F)F)c1 | 1.48 µM | 3 |
| Nc1c(C(=O)Nc2cccc(C(F)(F)F)c2)sc2nc3c(cc12)CCCCC3 | 2.53 µM | 63.1 |
| Nc1ccc(C2=NNC(=O)Cc3cc4c(cc32)OCCO4)cc1Cl | 0.886 µM | 4.18 |
| COc1ccc2nc3cc(Cl)ccc3c(NCCNCC(C)O)c2c1 (stereo not drawn) | 1.51 µM | 3.1 |
| CCn1c(-c2nonc2N)nc2c(C#CC(C)(C)O)nc(OC[C@@H](N)c3ccccc3)cc21 | 5.22 µM | 9.81 |
| Cn1ccc2c3c(Oc4ccc(NC(N)=O)cc4)ccnc3ccc21 | > 100 µM | > 100 |
| Nc1n[nH]c2cc(F)c([C@@H]3Nc4ccc5[nH]ncc5c4[C@H]4C5CCC(C5)[C@@H]34)cc12 (stereo partly drawn) | 0.0854 µM | 0.306 |
| COc1ccc(CCN=C2NC(=O)/C(=C/c3ccc4ncccc4c3)S2)cc1 | > 25 µM | > 25 |
| COC[C@H]1Cn2cc(-c3nc(Nc4ccnn4C)ncc3C)nc2C(=O)N1Cc1ccc(F)c(F)c1 | 0.186 µM | > 100 |

test system: NCI/ADR-RES ovarian; experiment: NCI-60 cell line screen, 48 h

| Structure (SMILES) | GI50 [µM] | TGI [µM] |
| --- | --- | --- |
| O=C(CCCSc1nc(-c2ccccc2)cc(-c2ccccc2)n1)NO | 0.305 | 10.5 |
| CC1SC(c2ccc(F)cc2)N(NC(=O)C(O)c2ccccc2)C1=O (stereo not drawn) | > 100 | > 100 |
| COCCOc1ccc(-c2nc3ccc(-c4nc5ccc(N6CCN(C)CC6)cc5[nH]4)cc3[nH]2)cc1 | > 100 | > 100 |
| Nc1n[nH]c2cccc(C#Cc3cccc(C(=O)Nc4ccc(CN5CCOCC5)c(C(F)(F)F)c4)c3)c12 | 3.07 | > 100 |
| CCC(=C/[C@H](C)C/C=C/C(C)=C/[C@@H](C)C(=O)[C@@H](C)[C@H](O)[C@@H](C)CC)/C=C/[C@H]1OC(=O)C=C[C@@H]1C | < 0.01 | 4.31 |
| Nc1ccccc1SC(CC(=O)c1ccccc1)c1cccc([N+](=O)[O-])c1 (stereo not drawn) | 20.4 | 42.8 |
| CN1CC[C@@H](NC(=O)Nc2ccc(C#N)cc2)C[C@@H]1c1nc2ccccc2[nH]1 | > 49.8 | > 86.6 |
| COc1ccc2nc(NC(=O)CSc3nnc4n3S(=O)(=O)c3ccccc3N4c3ccccc3)sc2c1 | > 100 | > 100 |
| O=C1NC(=NC(CO)Cc2ccccc2)S/C1=C\c1ccc2ncccc2c1 (stereo not drawn) | > 25 | > 25 |
| Cc1nnc(NC(=O)c2nc(S(=O)(=O)Cc3ccc(F)cc3)ncc2Cl)s1 | 14.2 | 50.1 |
| CC(C)[C@@H]1C=C2CC[C@H]3[C@](C)(CN)CCC[C@]3(C)[C@H]2CC1 | 2.62 | 7.32 |
| O=CNc1ccc2c(c1)C(=O)c1ccccc1-2 | – | > 100 |
| O=C(Nc1ccc(Oc2ccc(Nc3nc4ccccc4s3)cc2)cc1)Nc1ccc(Cl)c(C(F)(F)F)c1 | 1.8 | 4.11 |
| Nc1c(C(=O)Nc2cccc(C(F)(F)F)c2)sc2nc3c(cc12)CCCCC3 | 3.17 | 22.9 |
| Nc1ccc(C2=NNC(=O)Cc3cc4c(cc32)OCCO4)cc1Cl | 1.3 | 7.32 |
| COc1ccc2nc3cc(Cl)ccc3c(NCCNCC(C)O)c2c1 (stereo not drawn) | 3.08 | 14 |
| CCn1c(-c2nonc2N)nc2c(C#CC(C)(C)O)nc(OC[C@@H](N)c3ccccc3)cc21 | 5.16 | 11.7 |
| Cn1ccc2c3c(Oc4ccc(NC(N)=O)cc4)ccnc3ccc21 | > 100 | > 100 |
| Nc1n[nH]c2cc(F)c([C@@H]3Nc4ccc5[nH]ncc5c4[C@H]4C5CCC(C5)[C@@H]34)cc12 (stereo partly drawn) | 0.159 | 0.746 |
| COc1ccc(CCN=C2NC(=O)/C(=C/c3ccc4ncccc4c3)S2)cc1 | > 25 | > 25 |
| COC[C@H]1Cn2cc(-c3nc(Nc4ccnn4C)ncc3C)nc2C(=O)N1Cc1ccc(F)c(F)c1 | > 100 | > 100 |

test system: SR leukemia; experiment: NCI-60 cell line screen, 48 h

| Structure (SMILES) | GI50 | TGI |
| --- | --- | --- |
| O=C(CCCSc1nc(-c2ccccc2)cc(-c2ccccc2)n1)NO | 0.38 µM | 20.5 µM |
| CC1SC(c2ccc(F)cc2)N(NC(=O)C(O)c2ccccc2)C1=O (stereo not drawn) | > 100 µM | > 100 µM |
| COCCOc1ccc(-c2nc3ccc(-c4nc5ccc(N6CCN(C)CC6)cc5[nH]4)cc3[nH]2)cc1 | 0.5 µM | 21.9 µM |
| Nc1n[nH]c2cccc(C#Cc3cccc(C(=O)Nc4ccc(CN5CCOCC5)c(C(F)(F)F)c4)c3)c12 | 1.97 µM | > 100 µM |
| CCC(=C/[C@H](C)C/C=C/C(C)=C/[C@@H](C)C(=O)[C@@H](C)[C@H](O)[C@@H](C)CC)/C=C/[C@H]1OC(=O)C=C[C@@H]1C | < 0.01 µM | – |
| Nc1ccccc1SC(CC(=O)c1ccccc1)c1cccc([N+](=O)[O-])c1 (stereo not drawn) | 2.55 µM | 6.46 µM |
| CN1CC[C@@H](NC(=O)Nc2ccc(C#N)cc2)C[C@@H]1c1nc2ccccc2[nH]1 | 48.2 µM | > 100 µM |
| COc1ccc2nc(NC(=O)CSc3nnc4n3S(=O)(=O)c3ccccc3N4c3ccccc3)sc2c1 | 47.4 µM | > 100 µM |
| O=C1NC(=NC(CO)Cc2ccccc2)S/C1=C\c1ccc2ncccc2c1 (stereo not drawn) | 6.94 µM and 0.888 µM | > 22.6 µM and 5.23 µM |
| Cc1nnc(NC(=O)c2nc(S(=O)(=O)Cc3ccc(F)cc3)ncc2Cl)s1 | 1.44 µM | 3.55 µM |
